Patent US7601739B2, “Compounds having antiestrogenic and tissue selective estrogenic properties, and compounds with anti-androgenic properties for treatment of prostate cancer and androgen receptor dependent diseases” (Virgina Commonwealth University, priority 2006, dated 2009)

Columns and labels:
[1] = target: T1, mutant hART877A (Homo sapiens, UniProt P10275, T878A); experiment: Transient transfection reporter assay in LNCaP cells expressing mutant hAR; type: cell-based
T1 construct: LNCaP cells expressing a novel mutant hART877A; endogenous in cells; host or cells: LNCaP prostate cancer cells (transfected only with reporter plasmids, as far as printed)
T1 sequence (P10275 1-920 T878A): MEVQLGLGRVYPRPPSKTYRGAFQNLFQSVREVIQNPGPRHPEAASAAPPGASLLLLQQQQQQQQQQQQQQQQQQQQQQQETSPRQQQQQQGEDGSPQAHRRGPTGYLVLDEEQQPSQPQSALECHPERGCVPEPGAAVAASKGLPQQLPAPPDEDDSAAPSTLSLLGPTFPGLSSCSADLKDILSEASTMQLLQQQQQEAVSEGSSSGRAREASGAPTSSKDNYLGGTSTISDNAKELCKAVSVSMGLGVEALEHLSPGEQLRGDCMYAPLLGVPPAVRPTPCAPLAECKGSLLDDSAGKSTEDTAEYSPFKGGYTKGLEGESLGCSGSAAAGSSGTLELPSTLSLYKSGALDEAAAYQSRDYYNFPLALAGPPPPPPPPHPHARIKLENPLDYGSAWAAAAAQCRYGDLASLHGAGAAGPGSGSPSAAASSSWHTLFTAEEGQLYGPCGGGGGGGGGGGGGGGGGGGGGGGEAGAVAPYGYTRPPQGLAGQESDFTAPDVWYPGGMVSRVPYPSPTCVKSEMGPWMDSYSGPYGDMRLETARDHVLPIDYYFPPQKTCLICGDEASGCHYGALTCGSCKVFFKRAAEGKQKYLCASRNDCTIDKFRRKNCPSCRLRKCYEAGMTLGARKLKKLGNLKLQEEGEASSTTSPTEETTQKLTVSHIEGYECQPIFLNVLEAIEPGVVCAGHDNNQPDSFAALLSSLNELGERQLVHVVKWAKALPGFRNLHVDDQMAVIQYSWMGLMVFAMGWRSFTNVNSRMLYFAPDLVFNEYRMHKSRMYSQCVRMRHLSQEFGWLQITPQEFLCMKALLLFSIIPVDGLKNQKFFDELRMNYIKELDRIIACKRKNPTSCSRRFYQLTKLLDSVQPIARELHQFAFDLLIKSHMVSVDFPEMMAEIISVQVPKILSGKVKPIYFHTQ
From the text: To determine the agonist and antagonist activity of these compounds, the transient transfection reporter assay in HepG2 cells were employed. […] Apart from the testing against wild type hAR, because hAR mutation is one of the important factors for antiandrogen-resistant symptoms discovered in advance prostate cancer patients, we also employed transient transfection reporter assay in the prostate cancer cell line, LNCaP cells expressing a novel mutant hART877A.

[2] = target: T2, hERα (Homo sapiens, UniProt P03372); experiment: Transient transfection reporter assay for hERα in MCF-7 cells; type: cell-based; design: Relative Estrogenic Activity: dose or concentration left out as unconfirmed
T2 construct: mammalian expression plasmid containing full length human ER cDNA, pCMV-hER; expressed in transfected cells; host or cells: MCF-7 human breast cancer cells
T2 sequence (P03372 1-595): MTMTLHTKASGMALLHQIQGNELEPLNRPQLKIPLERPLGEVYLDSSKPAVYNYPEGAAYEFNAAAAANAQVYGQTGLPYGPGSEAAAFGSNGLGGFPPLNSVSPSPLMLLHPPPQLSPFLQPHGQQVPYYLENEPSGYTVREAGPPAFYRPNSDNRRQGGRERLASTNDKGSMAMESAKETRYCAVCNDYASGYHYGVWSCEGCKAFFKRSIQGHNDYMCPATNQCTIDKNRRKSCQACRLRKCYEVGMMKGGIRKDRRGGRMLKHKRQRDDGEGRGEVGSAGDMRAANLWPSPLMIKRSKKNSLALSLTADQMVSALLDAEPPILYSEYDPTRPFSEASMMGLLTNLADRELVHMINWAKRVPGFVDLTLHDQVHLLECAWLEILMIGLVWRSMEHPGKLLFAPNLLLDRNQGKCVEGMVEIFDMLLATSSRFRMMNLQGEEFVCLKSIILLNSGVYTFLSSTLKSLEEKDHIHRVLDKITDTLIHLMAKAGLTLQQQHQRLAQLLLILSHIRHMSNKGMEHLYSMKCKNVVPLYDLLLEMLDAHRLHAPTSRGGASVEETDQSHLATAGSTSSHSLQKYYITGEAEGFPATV
Experimental: For the transient transfection reporter assays, the cells were plated in triplicate in 12-well plates at a density of 300000 cells/well in the phenol red-free DMEM (GIBCO/BRL, Grand Island, N.Y.) supplemented with 10% charcoal-stripped fetal bovine serum (Hyclone, Logan, Utah), Penicillin (100 unit/ml)/Streptomycin ([…]), 2 mML-glutamine and 1 mM sodium Pyruvate. 24 hrs later, the cells were transfected with three plasmids by using Superfect transfection kit (Qiagen, Valencia, Calif.). For the detection of hER activity, cells were transfected with 2 g hER expression plasmid (pCMV-ER ), 6 g luciferase reporter plasmid containing estrogen receptor response element (PGL-TATA-Luc), and 600 ng normalization control, β-galactosidase reporter plasmid (pCMV ). For the detection of hER activity, cells were transfected with 3 ug hER expression plasmid (pcDNA3.1-hER), 6 g luciferase reporter plasmid containing estrogen receptor response element (PGL-TATA-Luc), and 600 ng pCMV. For determining the influence of ER's major coactivator in breast, AIB 1, 2 g pcDNA3.1-AIB1 was added into the transfection plasmid solution mentioned previously.
The transfected cells were rinsed with PBS and treated with various concentrations of test molecules and one […] (vehicle, DMSO or methanol) in phenol red-free culture medium. After incubation for further 24 hrs, the cells were washed with PBS and lysed with lysis buffer (Pierce, Rockford, Ill.). The lysate was used to determine the luciferase activity for ER's activity and the β-galactosidase activity for the normalization of transfection efficiency.
For the luciferase activity assay, 20 μl of lysate and 100 μl luciferase assay buffer (Promega, Madison, Wis.) were added into a well of 96-well plate. The luminescence was detected by using luminescence microplate reader, LumiCount (Packard, Boston, Mass.). For the β-galactosidase activity assay, […] β-galactosidase assay buffer (Clontech, Palo Alto, Calif.) were added into a well of 96-well plate. The β-galactosidase activity was measured as luminescence strength by using luminescence microplate reader, LumiCount (Packard, Boston, Mass.). The normalized reporter activity was calculated by the luciferase activity divided by that of β-galactosidase.
The transient transfection reporter assay was used to determine the estrogenic or antiestrogenic activity of tested compounds in employed human breast cancer cells, MCF-7 cells that are cotransfected with hERα expression and reporter plasmids. […] […] The estrogenic (antiestrogenic) activity was determined by dividing the luciferase activity by the β-galactosidase activity. To determine the influence of estrogen receptor's major coactivator in breast cancer, AIB1, for the compounds' estrogenic activity, the expression vector of AIB1 was additionally cotransfected with the plasmids mentioned above.

[3] = target: T3, hERα (Homo sapiens, UniProt P03372); experiment: Yeast two-hybrid and filter lift assay of hERα dimerization; type: cell-based
T3 construct: the full length hERα was inserted into pGAD-GAL4 and pGBD-GAL4 vectors; expressed in transfected cells; host or cells: S. cerevisiae Y190 transformed with pGBT-hER (pGBKT7) and pGAD-hER (pGADT7)
T3 sequence (P03372 1-595) 1: T2 sequence (P03372 1-595)
T3 sequence (P03372 1-595) 2: T2 sequence (P03372 1-595)
Experimental: The transformed yeasts with yeast two-hybrid vectors were cultured in synthetic medium lacking trytophan, and leucine. […] After that, the membranes were soaked in 0.4 ml Z-buffer/Xgal (60 mM Na2HPO4, 40 mM NaH2PO410 mM KCl, 1 mM MgSO4, 0.1% SDS, 50 mM -mercaptoethanol, 20 mM Xgal). The pictures of the results were taken within 2 and 3 hours after the -galactosidase assay was processed.
Dimerization of estrogen receptor plays an essential role in regulating estrogen receptor's functions including DNA binding, transactivation, and coactivator recruitment. In this study, yeast two hybrid and filter lift assays were used to determine the ability of compounds 2 and 6 to interrupt the dimerization of hERα. For setting up yeast two hybrid assay, the full length hERα was inserted into pGAD-GAL4 and pGBD-GAL4 vectors. In pGBD-GAL4, hERα was fused to the GAL4 DNA binding domain through its N terminus. In pGAD-GA14, hERα was fused to the GAL4 activation domain through its N terminus. When the dimerization of hERα occurs mainly through its C terminus, the GAL4 DNA binding domain binds to the repeated GAL4 response element located in front of the β-gal reporter gene and the whole complex, GAL4-BD/hERα/hERα/GAL4-AD, turns on the synthesis of the product of β-gal reporter gene. […] Filter lift assay in which X-gal was used, was employed to qualitatively determine the activity of β-galactosidase.

[4] = tested on: hER; experiment: Fluorescence-based competitive binding assay for hER (displacement of fluormone ES2); design: species or system human; settings: RBA = IC50 of tamoxifen/IC50 of test molecule; tamoxifen set at 1
Experimental: The estrogen receptor competitor assay kits (Panvera, Madison, Wis.) were used to determine the ability of test molecules to displace the fluormone, ES2, from hER -ES2 or hER -ES2 complex. Serial dilutions of each test molecule were prepared in methanol or DMSO. The recombinant hER or hER (7 nM) was preincubated with ES2 (1 nM) in screening buffer. After the preincubation, the test molecules and ER-ES2 complex solution were added into the 96-well microplate to produce a final volume of 100 μl per well. The reaction was incubated at room temperature for 1 hr and the polarization values were measured by using fluorescence microplate reader, Polarion (Tecan, Research Triangle Park, N.C.) with excitation wavelength 495 nm and emission wavelength 535 nm. The polarization value versus test molecule concentration curves was analyzed by graphfit software to generate IC50 values.
In this assay, recombinant hER and the commercial synthetic estrogen, ES2 containing fluorescence polarization property, are used. This assay is a homogenous assay. When the assay solution only contains ES2, the solution exerts weak fluorescence polarization property due to the quick rotation of free ES2 molecule. […] Addition of the antiestrogen to the ES2/hER displaces ES2 from hER and results in the whole solution exerting less fluorescence polarization property than the solution without antiestrogen.

[5] = tested on: MDA-MB-231 cells; experiment: hER negative breast cancer cell proliferation assay; type: cell-based, human; settings: hER negative cell line
Experimental: (§1) MCF-7 or MDA-MB-231 cells were inoculated into 12-well culture plates at 10000 cells in 2 ml maintained medium per well. Cells were allowed to attach to the bottom for 24 hrs incubation, then the seeding medium was removed and replaced by the experimental medium (phenol red-free DMEM supplemented with 5% charcoal-stripped fetal bovine serum and Penicillin (100 unit/ml)/Streptomycin ([…])). After 24 hr incubation, the test molecules dissolved in DMSO were added in the wells. […] The culture was continued for 3 days and the medium and tested compounds were replaced every two days. The final cell numbers were estimated with CellTiter proliferation assay kit (Promega, Madison, Wis.) by measuring the absorbance at 570 nm, which is directly proportional to the number of living cells in the culture.
In this assay, MDA-MB-231 breast cancer cell line, a hER negative cell line, was used. DMSO was used as reference.

[6] = tested on: MCF-7 cells; experiment: hERα positive breast cancer cell proliferation assay; type: cell-based, human
Experimental: as §1
MCF-7 cell line was used to perform this assay and the description of this assay as mentioned above. […] DMSO was used as reference.

Row | Structure (SMILES) | agonistic effects against mutant hART877A [1] | Relative Estrogenic Activity ([2]; MCF-7 cells transfected with hERα, DMSO set as 1) | estrogenic effect ([2]; MCF-7 cells, hERα, compared with DMSO and tamoxifen) | Relative Antiestrogenic Activity at 2.5 μM ([2]; with 1 nM estradiol, 1 nM E2 used as reference (1)) | inhibitory activity against hERα dimerization in combination with estrogen ([3]; combined with estrogen) | induction of hERα dimerization, compound alone ([3]; tested alone) | Relative Binding Affinity [4] | proliferation effects against MDA-MB-231 cells (FIG. 6, words) [5] | inhibition effects against MCF-7 cell proliferation [6] | activity at 5 µM ([6]; Homo sapiens, MCF7, 72 h, MCF-7 cells, DMSO = 1, read-out: Relative Cancer Cell Proliferation Effects at 5 μM) [%]
1 | C[C@]1(O)CC[C@H]2[C@@H]3CCC4=CC(=O)CCC4=C3C=C[C@@]21C [Compound R1881, R1881] | significant agonism activity | – | – | – | – | – | – | – | – | –
2 | CCCCNC(=O)CCCCCCCCCCOCC1Cc2ccccc2CN1C(=O)c1cccc(F)c1 (stereo not shown) [Compound 2] | – | 0.9 | do not exert any estrogenic effects | 0.75 | weak inhibitory activity | did not induce the dimerization of hERα | 0.287 | do not inhibit or stimulate the growth | slightly lower inhibition effects than compound 6 | 66
